Data published in US11903992B2, “Composition comprising lidocaine, l-carnosine and dexpanthenol” (Cellix Bio Private Limited, priority 2021, dated 2024).

Assays:
[1] = Stability observations during development of the formulation; format: physicochemical; conditions: during development of the oral rinse formulation
From the text: In an embodiment, the composition is formulated as an oral rinse formulation. It could also be noted during development of the formulation that L-Carnosine tends to increase the pH of the composition to about 8.5, which tend to increase the degradation of lidocaine. […] During the experimentation, it could be noted that presence of a buffer (e.g. a citrate buffer) and an anti-oxidant (e.g. sodium metabisulfite) in the composition, while maintaining pH of the resultant composition/formulation around 6.5±1 (i.e. ranging from about 5.5 to about 7.5), preferably at 6.5±0.5 and more preferably, at 6.5±0.2 affords dramatic improvement in the shelf life of the composition/formulation.

[2] = pH of the formulation (pH meter); format: physicochemical; conditions: during development of the formulation; tends to increase degradation of lidocaine

stability observation of the ingredient [1]	pH of the composition as increased by L-Carnosine [2]	Structure (SMILES)
requires neutral pH for stability		CC(C)(CO)[C@@H](O)C(=O)NCCCO [Dexpanthenol]
sensitive to oxygen tend to degrade	about 8.5	NCCC(=O)N[C@@H](Cc1cnc[nH]1)C(=O)O [L-Carnosine]
